Test results reported in the NIST ThermoML archive (doi:10.1021/acs.jced.7b00333).
± gives the expanded uncertainty stated by the source.

Assays:
[1] = Molar enthalpy of transition or fusion; settings: Crystal; DSC
[2] = Crystal; DTA

Molar enthalpy of transition or fusion [1]: 7.98 ± 0.359 kcal/mol
Normal melting temperature [2]: 212.7 ± 1.1 °C
SMILES: COc1cc(C(=O)O)cc(OC)c1O [4-hydroxy-3,5-dimethoxybenzoic acid]
